# How the values were obtained:
# [1] = Parallel Artificial Membrane Permeability Assay (PAMPA), GI; format: in vitro ADME; settings: GI (intestinal) PAMPA, value in brackets
# Experimental: Parallel Artificial Membrane Permeability Assay (PAMPA). Donor solution (0.5 mM) was prepared by diluting 1 mM dimethylsulfoxide (DMSO) compound stock solution using phosphate buffer (pH 7.4, 0.025 M). Filters were coated with 5 μL of a 1% (w/v) dodecane solution of phosphatidylcholine prepared from CHCl3 solution 10% w/v, for intestinal permeability. Donor solution (150 μL) was added to each well of the filter plate. To each well of the acceptor plate were added 300 μL of solution (50% DMSO in phosphate buffer). All compounds were tested in three different plates on different days. The sandwich was incubated for 5 h at room temperature under gentle shaking. After the incubation time, the plates were separated, and samples were taken from both receiver and donor sides and analyzed using LC with UV detection at 280 nm.
# LC analysis were performed with a Varian Prostar HPLC system (Varian Analytical Instruments, USA) equipped with a binary pump with a manual injection valve and model Prostar 325 UV-VIS Detector. Chromatographic separations were conducted using a Polaris C18-A column (150-4.6 mm, 5 μm particle size) at a flow rate of 0.8 mL min^−1 with a mobile phase composed of 60% ACN/40% H2O.
# Permeability (Papp) for PAMPA was calculated according to the following equation, obtained from Wohnsland and Faller and Sugano et al. equation with some modification in order to obtain permeability values in cm s^−1,
# where VA is the volume in the acceptor well, VD is the volume in the donor well (cm^3), A is the “effective area” of the membrane (cm^2), t is the incubation time (s) and r the ratio between drug concentration in the acceptor and equilibrium concentration of the drug in the total volume (VD+VA). Drug concentration is estimated by using the peak area integration.
# Membrane retentions (%) were calculated according to the following equation: […]
# where r is the ratio between drug concentration in the acceptor and equilibrium concentration, D, A, and Eq represented drug concentration in the donor, acceptor and equilibrium solution, respectively.
# [2] = Water Solubility Assay; format: physicochemical; settings: for LogS: from aqueous solubility; for Aq. Solub.: water, room temperature, 24-36 h
# Experimental: Water Solubility Assay. Each solid compound (1 mg) was added to 1 mL of water. The samples were shaked in a shaker bath at room temperature for 24-36 h. The suspensions were filtered through a 0.45 μm nylon filter (Acrodisc), and the solubilized compound determined by LC-MS-MS assay. For each compound the determination was performed in triplicate.
# (§1) For the quantification was used an LC-MS system consisted of a Varian apparatus (Varian Inc) including a vacuum solvent degassing unit, two pumps (212-LC), a Triple Quadrupole MSD (Mod. 320-LC) mass spectrometer with ES interface and Varian MS Workstation System Control Vers. 6.9 software. Chromatographic separation was obtained using a Pursuit C18 column (50×2.0 mm) (Varian) with 3 μm particle size and gradient elution: eluent A being ACN and eluent B consisting of water. […] The flow rate was 0.2 mL min^−1 and injection volume was 5 μL. The instrument operated in positive mode and parameters were: detector 1850 V, drying gas pressure 25.0 psi, desolvation temperature 300.0° C., nebulizing gas 40.0 psi, needle 5000 V and shield 600 V. Nitrogen was used as nebulizer gas and drying gas. Collision induced dissociation was performed using Argon as the collision gas at a pressure of 1.8 mTorr in the collision cell. Microsomal Stability Assay. […] The reaction was stopped by cooling on ice and adding 1.0 mL of acetonitrile. The reaction mixtures were then centrifuged, and the parent drug and metabolites were subsequently determined by LC-UV-MS. Chromatographic analysis was performed with an Agilent 1100 LC/MSD VL system (G1946C) (Agilent Technologies, Palo Alto, Calif.) constituted by a vacuum solvent degassing unit, a binary high-pressure gradient pump, an 1100 series UV detector, and an 1100 MSD model VL benchtop mass spectrometer.
# [3] = target: T1, Human recombinant DDX3 (DDX3 wt helicase) (Homo sapiens, UniProt O00571); assay: Helicase assay (anti-enzymatic activity against the DDX3 helicase); format: biochemical; settings: for activity compared with compound EI01D: DDX3 helicase inhibition relative to EI01D
# T1 construct: made in house
# T1 sequence (O00571 whole entry): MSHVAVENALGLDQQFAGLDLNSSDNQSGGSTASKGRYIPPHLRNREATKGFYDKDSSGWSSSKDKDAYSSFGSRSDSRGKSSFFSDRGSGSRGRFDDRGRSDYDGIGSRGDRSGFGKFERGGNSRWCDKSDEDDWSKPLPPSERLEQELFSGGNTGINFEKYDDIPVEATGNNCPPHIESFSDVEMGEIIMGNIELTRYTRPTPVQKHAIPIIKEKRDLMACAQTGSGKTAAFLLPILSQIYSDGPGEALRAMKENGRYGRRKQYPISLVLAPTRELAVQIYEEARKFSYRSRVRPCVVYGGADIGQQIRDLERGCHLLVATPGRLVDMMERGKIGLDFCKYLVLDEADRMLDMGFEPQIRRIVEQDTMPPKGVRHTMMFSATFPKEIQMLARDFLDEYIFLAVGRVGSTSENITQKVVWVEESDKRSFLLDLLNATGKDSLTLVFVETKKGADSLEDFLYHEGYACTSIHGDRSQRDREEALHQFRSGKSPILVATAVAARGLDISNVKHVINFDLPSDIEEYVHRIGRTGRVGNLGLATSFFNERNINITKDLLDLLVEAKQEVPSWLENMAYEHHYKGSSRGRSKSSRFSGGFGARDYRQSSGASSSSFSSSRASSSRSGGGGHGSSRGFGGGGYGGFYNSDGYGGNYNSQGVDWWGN
# Experimental: The helicase activity of DDX3 wt was monitored by measuring the conversion of a double stranded (ds) RNA (labelled at the 5′-end of one strand with a 6-FAM fluorescent) into single stranded (ss) nucleic acid. A final concentration of 25 nM RNA substrate was used in the experiments, unless otherwise stated. Reactions were performed in 50 mM TrisHCl pH 7.5, 1 mM DTT, 0.2 mg/ml BSA, 5% glycerol and 100 μM ATP, 10 mM MgCl2 at 37° C. degrees for 10′ and stopped by adding EDTA 50 mM pH 8. Products were separated through non-denaturating 8% PAGE at 5 W for 4 hours in TBE buffer at 4° C. Substrates and products were quantified by laser scanning densitometry (Thyphoon-TRIO, GE Healthcare).
# Human recombinant DDX3 was cloned, expressed and purified as described (Franca et al. Proteins 2007, 67, 1128-37).
# [4] = tested on: Human breast adenocarcinoma cell line (MDA-MB-231); assay: Cytotoxicity test / growth inhibition, MDA-MB-231; format: cell-based; settings: MDA-MB-231, 48 hours, cell counting
# Experimental: (§2) Cells were purchased from American Type Culture Collection (ATCC, Manassas, Va., USA). The LNCaP (ATCC® CRL-1740™), A549 (ATCC® CCL-185™), MDA-MB-231 (ATCC® CRM-HTB-26™), 22Rv1 (ATCC® CRL-2505™), HCT-116 (ATCC® CCL-247™) and PC3 (ATCC® CRL-1435™) cells were maintained in Roswell Park Memorial Institute 1640 medium (RPMI; Euroclone, ECB9006L) supplemented with 10% fetal bovine serum (Euroclone; ECS0180L), 2 mM L-glutamine, 100 units/mL penicillin and […] streptomycin at 37° C. in an atmosphere of 5% CO2/air. DU145 (ATCC® HTB-81™), and DAOY (ATCC® HTB-186™) cells were maintained in Eagle's minimal essential medium (EMEM; Euro-clone, ECM0445L) supplemented with 10% fetal bovine serum (Euroclone; ECS0180L), 2 mM L-glutamine, 100 units/ml penicillin and […] streptomycin at 37° C. in an atmosphere of 5% CO2/air. SH-SY5Y (ATCC® CRL-2266™), DBRTG (ATCC® CRL-2020™), HeLa (ATCC® CCL-2™), HN6 cells (kindly provided by Dr Silvio Gutkind, UCSD Medical Center, Moores Cancer Center USA, Chen J. J et al, Oncotarget 2013, 4, 206-217)), U2OS (ATCC® HTB-96™), RD18 cells (kindly provided by Dr P. Boccuni Memorial Sloan-Kettering Cancer Center, New York, USA Vella S. et al. Clin Epigenetics. 2015 6; 7-82), cells were maintained in Dulbecco's modified Eagle's medium (DMEM; Euroclone, ECB7501L) supplemented with 10% fetal bovine serum (Euroclone; ECS0180L), 2 mM L-glutamine, 100 units/ml penicillin and […] streptomycin at 37° C. in an atmosphere of 5% CO2/air.
# (§3) Cell lines were seeded at appropriate densities in 2 mL growth medium in 6-wells culture plates 24 hours before the treatment with the inhibitor compounds. After 24 h the culture medium was removed and fresh medium containing increasing concentrations of chemical compounds was added to cells. The fixed final concentrations were: 0.1 μM, 1 μM, 10 μM, 100 μM. DMSO was the vehicle used for dilution of the compounds and its final concentration on cells was less than 0.2%. Medium-only containing wells were included as controls. Cells were incubated 48 hours with drugs and, then, cell viability was evaluated.
# (§4) Cells were detached from each well of the 6-wells plates with 300 μL of Trypsin and suspended in culture medium to a final volume of 1 mL. Cell viability was then assessed through cell counting. Cells were diluted in 1:50 ratio of an isotonic buffered diluent, Isoton (Backman Coulter), following the manufacturer's instructions, and counted using an automated cell counter (Z2 series Coulter Counter, Beckman Coulter). Each cell count was performed in three replicates. The values corresponding to the relative survival of cells in presence of each chemical compound at single concentrations were normalized to the untreated controls. Then, the half maximal inhibitory concentration (IC50) value, which represent the drug concentration that is required to induce a 50% growth inhibition in vitro, was calculated with GraphPad Prism 6.0 software using the best fitting sigmoid curve.
# [5] = tested on: Human adenocarcinomic alveolar basal epithelial cell line (A549); assay: Cytotoxicity test / growth inhibition, A549; format: cell-based; settings: A549, 48 hours, cell counting
# Experimental: as §2, §3, §4
# [6] = tested on: Human osteosarcoma cell line (U2OS); assay: Cytotoxicity test / growth inhibition, U2OS; format: cell-based; settings: 48 hours, cell counting
# Experimental: as §2, §3, §4
# [7] = tested on: Human head and neck squamous carcinoma cell line (HN6); assay: Cytotoxicity test / growth inhibition, HN6; format: cell-based; settings: HN6, 48 hours, cell counting
# Experimental: as §2, §3, §4
# [8] = Microsomal Stability Assay (HLM); format: in vitro ADME; settings: human liver microsomes, 37° C., 60 min, NADPH-generating system; percentage of not metabolized compound
# Text: as §1
# Chromatographic separation was obtained using a Varian Polaris C18-A column (150-4.6 mm, 5 μm particle size) and gradient elution: eluent A being ACN and eluent B consisting of water. […] The flow rate was 0.8 mL min^−1 and injection volume was 20 μL.
# The Agilent 1100 series mass spectra detection (MSD) single-quadrupole instrument was equipped with the orthogonal spray API-ES (Agilent Technologies, Palo Alto, Calif.). Nitrogen was used as nebulizing and drying gas. The pressure of the nebulizing gas, the flow of the drying gas, the capillary voltage, the fragmentor voltage, and the vaporization temperature were set at 40 psi, 9 L/min, 3000 V, 70 V, and 350° C., respectively. UV detection was monitored at 280 nm. The LC-ESI-MS determination was performed by operating the MSD in the positive ion mode. Spectra were acquired over the scan range m/z 100-1500 using a step size of 0.1 u. The percentage of not metabolized compound was calculated by comparison with reference solutions.
smiles,measurement,setting,value
"Cc1ccccc1NC(=O)Nc1ccc(-n2cc(CCC(C)C)nn2)cc1 [Compound 20b, 1-(4-(4-isopentyl-1H-1,2,3-triazol-1-yl)phenyl)-3-o-tolylurea]",PAMPA GI (RM %) membrane retention,[1],26.7%
same,LogS,[2],<−8.6
same,Aq. Solub.,[2],<0.001 µg/mL
"COCCc1cn(-c2ccc(NC(=O)Nc3ccccc3C)cc2)nn1 [Compound 20f, 1-(4-(4-(2-methoxyethyl)-1H-1,2,3-triazol-1-yl)phenyl)-3-o-tolylurea]",PAMPA GI (RM %) membrane retention,[1],7.4%
"Cc1c(Cl)cccc1NC(=O)Nc1ccc(-n2cc(CCC(C)C)nn2)cc1 [Compound 21b, 1-(3-chloro-2-methylphenyl)-3-(4-(4-isopentyl-1H-1,2,3-triazol-1-yl)phenyl)urea]",PAMPA GI (RM %) membrane retention,[1],59.1%
same,LogS,[2],<−8.6
same,Aq. Solub.,[2],<0.001 µg/mL
"CC(C)CCc1cn(-c2ccc(NC(=O)Nc3ccccc3C(F)(F)F)cc2)nn1 [Compound 22b, 1-(4-(4-isopentyl-1H-1,2,3-triazol-1-yl)phenyl)-3-(2-(trifluoromethyl)phenyl)urea]",activity compared with compound EI01D,[3],approximately ten-fold more active
same,PAMPA GI (RM %) membrane retention,[1],24.8%
same,LogS,[2],<−8.6
same,IC50,[4],13.1 µM
"CCCC(C)C(F)c1cn(-c2ccc(NC(=O)Nc3ccccc3C(F)(F)F)cc2)nn1 (stereo not shown) [Compound 42c, 1-(4-(4-(1-fluoro-2-methylpentyl)-1H-1,2,3-triazol-1-yl)phenyl)-3-(2-(trifluoromethyl)phenyl) urea]",IC50,[4],33.6 µM
same,IC50,[5],57.2 µM
same,IC50,[6],22.5 µM
same,IC50,[7],6.32 µM
"CCOCn1nnc(-c2ccc(NC(=O)Nc3ccccc3C)cc2)n1 [Compound 50, 1-(4-(2-(ethoxymethyl)-2H-tetrazol-5-yl)phenyl)-3-(o-tolyl)urea]",IC50,[4],23.5 µM
"CCCCn1nnc(-c2ccc(NC(=O)Nc3ccccc3C(F)(F)F)cc2)n1 [Compound 51, 1-(4-(2-butyl-2H-tetrazol-5-yl)phenyl)-3-(2-(trifluoromethyl)phenyl)urea]",IC50,[6],51.5 µM
same,IC50,[7],16.4 µM
"CC(C)CCc1cn(-c2ccc(NC(=O)Nc3ccccc3F)cc2)nn1 [Compound 55a, 1-(2-fluorophenyl)-3-(4-(4-isopentyl-1H-1,2,3-triazol-1-yl)phenyl)urea]",activity compared with compound EI01D,[3],approximately ten-fold more active
"CC(C)CCc1cn(-c2ccc(NC(=O)Nc3cccc(F)c3)cc2)nn1 [Compound 55b, 1-(3-fluorophenyl)-3-(4-(4-isopentyl-1H-1,2,3-triazol-1-yl)phenyl)urea]",activity compared with compound EI01D,[3],approximately ten-fold more active
"CCCCc1cn(-c2ccc(NC(=O)Nc3ccccc3C(F)(F)F)cc2F)nn1 [Compound 81, 1-(4-(4-butyl-1H-1,2,3-triazol-1-yl)-3-fluorophenyl)-3-(2-(trifluoromethyl)phenyl)urea]",PAMPA GI (RM %) membrane retention,[1],30.4%
same,Sability %,[8],94%
same,IC50,[4],25.1 µM
"CC(C)CCc1cn(-c2ccc(NC(=O)Nc3ccccc3C(F)(F)F)cn2)nn1 [Compound 86, 1-(6-(4-isopentyl-1H-1,2,3-triazol-1-yl)pyridin-3-yl)-3-(2-(trifluoromethyl)phenyl)urea]",IC50,"[3]; DDX3 helicase activity, dsRNA unwinding, n.a = Compound not active, read-out: ID50 (the source's name)",51 µM
"CCCCc1nnc(-c2ccc(NC(=O)Nc3ccccc3C(F)(F)F)cc2)s1 [Compound 124, 1-(4-(5-butyl-1,3,4-thiadiazol-2-yl)phenyl)-3-(2-(trifluoromethyl)phenyl)urea]",IC50,[6],60.1 µM

# Source: patent US11000512B2, “Use of DDX3 inhibitors as antiproliferative agents” (AZIENDA OSPEDALIERA UNIVERSITARIA SENESE, priority 2016, dated 2021)
